According to patent publication US9845340B2, “Peptides that specifically bind HGF receptor (cMet) and uses thereof” (Dyax Corp., priority 2003, dated 2017):

What was measured:
[1] = target: T1, cMet-Fc fusion protein (or similar target) (Mus musculus, UniProt P16056); assay: Fluorescence anisotropy / polarization direct binding, mouse cMet; parameters: key: NB = no binding; details: fluorescein-labeled peptide
T1 construct: Fc
Method: Fluorescence anisotropy measurements were performed in 384-well microplates in a volume of 10 μL in binding buffer (PBS, 0.01% Tween-20, pH 7.5) using a Tecan Polarion fluorescence polarization plate reader ([…]). The concentration of fluorescein-labeled peptide was held constant (20 nM) and the concentration of cMet-Fc fusion protein (or similar target) was varied. Binding mixtures were equilibrated for 10 minutes in the microplate at 30 C before measurement. The observed change in anisotropy was fit to the equation below via nonlinear regression to obtain the apparent KD. This equation (1) assumes that the synthetic peptide and cMet form a reversible complex in solution with 1:1 stoichiometry.
[formula] where robs is the observed anisotropy, rfree is the anisotropy of the free peptide, rbound is the anisotropy of the bound peptide, KD is the apparent dissociation constant, cMet is the total cMet concentration, and P is the total fluorescein-labeled peptide concentration. KD was calculated in a direct binding assay (KD,B) and therefore these values represent cMet binding to the fluorescein labeled peptide.

cMet-Fc fusion protein = cMet-Fc fusion protein (Homo sapiens, UniProt P08581); assay: Protein phage ELISA: peptide-displaying phage binding to soluble cMet-Fc versus TRAIL-Fc; details: phage isolate; cMet-Fc vs. TRAIL-Fc
Procedure, shortened: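 Plates coated with 0.5 μg/mL cMet-Fc or, as background, TRAIL-Fc, then blocked with 3% BSA in PBST. Peptide-displaying phage bound 2 h at room temperature. Detection with HRP-anti-M13 antibody.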

[2] = target: T2, 3T3 cells that over-express human cMet (Homo sapiens, UniProt P08581); assay: Whole cell ELISA of peptide-displaying phage; format: cell-based; details: phage isolate; 3T3 cells expressing human cMet vs. non-expressing 3T3 cells
T2 construct: expressed in transfected cells; host or cells: 3T3 cells
Procedure, shortened: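 3T3 cells over-expressing human cMet seeded 10^5/well, pelleted and fixed with 0.1% glutaraldehyde 12 min at 37 °C. Blocked peptide-displaying phage bound 1 h at room temperature; after PBST wash, bound phage detected with HRP-conjugated anti-M13 antibody.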

SK-LMS-1 cells = assay: Cellular proliferation assay (HGF-stimulated, BrdU incorporation); format: cell-based; details: peptide 10 μM, HGF 50 ng/mL or 100 ng/mL, FIG. 10
Method: Cellular proliferation assays were performed to identify cMet-binding peptides that antagonize HGF-stimulated proliferation. These in vitro studies utilized a leomyosarcoma cell line, SK-LMS-1, in which cells proliferate in response to HGF. SK-LMS-1 cells were seeded on 96-well plates at a density of 2000 cells/well. After a 24 hour incubation at 37 C, the cells were starved in culture media containing 0.1% BSA instead of 10% fetal bovine serum for 36 hours at 37 C. Fresh starvation media with or without a cMet-binding peptide (10 μM) was added to the respective wells and the cells were incubated for 2 hours at 37 C. […] HGF was then added at a concentration of either 50 ng/mL or 100 ng/mL and the cells were incubated for an additional 12 hours at 37 C. Proliferation was assessed by measuring the incorporation of BrdU (Calbiochem, San Diego, Calif.) as described by the manufacturer. Results are shown for SEQ ID NO:365 (FIG. 10).

Sequence of cMet-Fc fusion protein (P08581 25-307 limits assumed): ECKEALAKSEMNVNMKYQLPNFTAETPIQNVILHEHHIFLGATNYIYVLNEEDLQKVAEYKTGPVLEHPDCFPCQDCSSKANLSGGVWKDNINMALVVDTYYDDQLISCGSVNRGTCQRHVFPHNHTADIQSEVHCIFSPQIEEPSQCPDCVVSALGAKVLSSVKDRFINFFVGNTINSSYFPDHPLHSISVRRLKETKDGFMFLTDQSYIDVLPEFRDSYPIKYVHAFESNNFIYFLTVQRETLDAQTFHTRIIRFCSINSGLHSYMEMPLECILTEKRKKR
Sequence of cMet-Fc fusion protein (P08581 with tags, fused parts or gaps limits assumed): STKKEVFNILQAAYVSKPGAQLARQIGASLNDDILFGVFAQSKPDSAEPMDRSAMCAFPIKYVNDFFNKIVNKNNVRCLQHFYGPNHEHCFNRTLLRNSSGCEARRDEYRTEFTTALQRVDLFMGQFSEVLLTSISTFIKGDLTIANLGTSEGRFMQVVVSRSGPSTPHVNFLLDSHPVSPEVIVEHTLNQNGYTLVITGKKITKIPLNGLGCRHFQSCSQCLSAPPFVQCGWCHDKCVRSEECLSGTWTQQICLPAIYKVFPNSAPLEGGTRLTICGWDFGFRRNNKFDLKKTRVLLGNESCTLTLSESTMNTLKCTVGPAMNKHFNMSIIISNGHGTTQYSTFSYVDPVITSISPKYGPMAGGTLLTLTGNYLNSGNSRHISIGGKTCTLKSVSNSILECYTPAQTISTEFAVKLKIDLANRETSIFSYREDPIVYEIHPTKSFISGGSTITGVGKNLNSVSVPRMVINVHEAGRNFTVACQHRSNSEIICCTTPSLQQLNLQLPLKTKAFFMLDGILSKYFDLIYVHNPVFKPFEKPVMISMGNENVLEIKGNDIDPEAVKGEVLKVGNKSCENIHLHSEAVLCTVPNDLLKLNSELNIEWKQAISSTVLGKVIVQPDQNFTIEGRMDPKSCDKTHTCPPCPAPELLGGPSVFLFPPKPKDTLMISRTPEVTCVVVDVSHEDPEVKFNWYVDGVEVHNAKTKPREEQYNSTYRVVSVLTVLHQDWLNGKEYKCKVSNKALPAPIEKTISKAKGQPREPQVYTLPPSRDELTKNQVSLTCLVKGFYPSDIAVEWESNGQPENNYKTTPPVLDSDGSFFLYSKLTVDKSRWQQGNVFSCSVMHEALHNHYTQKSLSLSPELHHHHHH
T1 sequence (P16056 25-306 limits assumed): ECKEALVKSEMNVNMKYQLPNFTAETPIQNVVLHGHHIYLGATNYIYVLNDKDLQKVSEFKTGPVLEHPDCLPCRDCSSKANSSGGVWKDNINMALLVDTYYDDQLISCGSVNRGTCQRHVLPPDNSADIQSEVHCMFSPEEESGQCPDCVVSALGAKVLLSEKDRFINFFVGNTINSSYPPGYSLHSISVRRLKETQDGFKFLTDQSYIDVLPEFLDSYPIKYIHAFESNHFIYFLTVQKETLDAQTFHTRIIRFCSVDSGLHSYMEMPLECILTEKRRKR
T1 sequence (P16056 307-929 limits assumed): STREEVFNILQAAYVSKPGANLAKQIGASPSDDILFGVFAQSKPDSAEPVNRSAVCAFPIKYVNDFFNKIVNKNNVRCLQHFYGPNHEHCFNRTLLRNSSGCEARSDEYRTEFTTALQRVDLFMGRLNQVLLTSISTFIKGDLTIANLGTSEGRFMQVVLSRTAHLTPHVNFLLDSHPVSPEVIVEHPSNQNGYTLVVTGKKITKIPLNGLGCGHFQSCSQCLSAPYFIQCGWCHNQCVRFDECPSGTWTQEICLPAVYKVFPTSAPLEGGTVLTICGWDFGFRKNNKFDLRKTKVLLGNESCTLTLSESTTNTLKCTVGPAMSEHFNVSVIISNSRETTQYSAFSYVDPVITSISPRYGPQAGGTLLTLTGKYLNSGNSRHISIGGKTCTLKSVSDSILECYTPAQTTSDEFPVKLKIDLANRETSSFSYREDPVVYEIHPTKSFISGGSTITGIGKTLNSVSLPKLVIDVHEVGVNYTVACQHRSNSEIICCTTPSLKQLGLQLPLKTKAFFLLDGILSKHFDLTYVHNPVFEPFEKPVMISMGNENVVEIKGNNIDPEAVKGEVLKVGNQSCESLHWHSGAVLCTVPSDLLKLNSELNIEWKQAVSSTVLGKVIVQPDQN
T2 sequence (P08581 25-1390): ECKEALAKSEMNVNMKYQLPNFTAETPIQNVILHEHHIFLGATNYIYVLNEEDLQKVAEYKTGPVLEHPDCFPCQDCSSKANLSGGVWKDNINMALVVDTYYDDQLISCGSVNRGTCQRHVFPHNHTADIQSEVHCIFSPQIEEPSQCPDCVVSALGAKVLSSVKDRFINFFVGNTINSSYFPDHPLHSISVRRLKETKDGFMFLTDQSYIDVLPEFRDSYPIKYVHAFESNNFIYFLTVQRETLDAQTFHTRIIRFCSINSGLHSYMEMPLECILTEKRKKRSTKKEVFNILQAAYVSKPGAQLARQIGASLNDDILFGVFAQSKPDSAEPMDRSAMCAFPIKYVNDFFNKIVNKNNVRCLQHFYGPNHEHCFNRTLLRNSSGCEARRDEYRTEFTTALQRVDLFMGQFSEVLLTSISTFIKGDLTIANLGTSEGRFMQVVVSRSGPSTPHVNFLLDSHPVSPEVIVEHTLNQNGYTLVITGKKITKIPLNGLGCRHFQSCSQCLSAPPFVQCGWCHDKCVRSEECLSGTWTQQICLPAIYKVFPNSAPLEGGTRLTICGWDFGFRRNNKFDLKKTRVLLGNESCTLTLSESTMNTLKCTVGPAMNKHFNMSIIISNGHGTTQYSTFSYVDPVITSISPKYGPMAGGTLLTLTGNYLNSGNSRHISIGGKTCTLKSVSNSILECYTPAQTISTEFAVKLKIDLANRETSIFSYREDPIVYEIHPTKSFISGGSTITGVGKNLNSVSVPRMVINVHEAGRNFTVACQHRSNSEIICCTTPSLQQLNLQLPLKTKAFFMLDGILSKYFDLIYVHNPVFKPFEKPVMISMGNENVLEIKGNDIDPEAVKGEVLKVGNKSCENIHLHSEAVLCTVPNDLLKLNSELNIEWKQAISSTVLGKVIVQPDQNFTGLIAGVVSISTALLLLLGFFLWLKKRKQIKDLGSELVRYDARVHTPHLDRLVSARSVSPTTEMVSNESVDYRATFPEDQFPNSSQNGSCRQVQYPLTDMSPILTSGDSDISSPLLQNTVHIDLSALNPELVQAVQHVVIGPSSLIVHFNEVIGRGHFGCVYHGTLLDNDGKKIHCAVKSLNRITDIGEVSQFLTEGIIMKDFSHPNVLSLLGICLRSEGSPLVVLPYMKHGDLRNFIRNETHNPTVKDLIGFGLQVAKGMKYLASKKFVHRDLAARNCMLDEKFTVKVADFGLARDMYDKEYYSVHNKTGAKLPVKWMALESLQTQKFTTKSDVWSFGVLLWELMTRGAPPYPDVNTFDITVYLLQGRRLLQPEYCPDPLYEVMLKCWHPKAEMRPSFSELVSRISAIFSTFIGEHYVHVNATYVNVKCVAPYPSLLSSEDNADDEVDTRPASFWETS

| Kd (mouse) [1] | Protein ELISA (cMet-Fc fusion protein) | WC ELISA [2] | Compound | growth inhibitory properties (HGF-stimulated proliferation) (SK-LMS-1 cells) |
| --- | --- | --- | --- | --- |
| NB | – | – | CSCC[C@@H]1NC(=O)[C@@H](NC(=O)[C@H](CCSC)NC(=O)[C@H](CCC(=O)O)NC(=O)[C@@H]2CCCN2C(=O)[C@H](CO)NC(=O)CNC(C)=O)CSSC[C@@H](C(=O)N[C@@H](CC(N)=O)C(=O)N[C@@H](Cc2c[nH]cn2)C(=O)N[C@@H](Cc2c[nH]cn2)C(=O)N[C@@H](C)C(=O)N2CCC[C@H]2C(=O)NCC(=O)NCC(=O)NCC(=O)N[C@@H](CCCCNC(=O)c2ccc3c(c2)C(=O)OC32c3ccc(O)cc3Oc3cc(O)ccc32)C(N)=O)NC(=O)[C@@H]2CCCN2C(=O)[C@H](Cc2ccc(O)cc2)NC(=O)[C@H](CC(C)C)NC(=O)[C@H](Cc2ccccc2)NC(=O)[C@@H]2CCCN2C(=O)[C@H](Cc2ccccc2)NC(=O)[C@H](CCSC)NC1=O [SEQ ID NO: 369] | – |
| NB | 13.3 fold over background | 1.87 fold over background | CC[C@H](C)[C@@H]1NC(=O)[C@H](CCCNC(=N)N)NC(=O)[C@H](Cc2c[nH]c3ccccc23)NC(=O)[C@@H](NC(=O)[C@@H]2CCCN2C(=O)[C@H](Cc2ccccc2)NC(=O)[C@H](Cc2ccccc2)NC(=O)[C@H](CO)NC(=O)CNC(C)=O)CSSC[C@@H](C(=O)N[C@@H](Cc2c[nH]cn2)C(=O)N[C@@H](C)C(=O)N[C@@H](CC(N)=O)C(=O)N[C@@H](C)C(=O)N2CCC[C@H]2C(=O)NCC(=O)NCC(=O)NCC(=O)N[C@@H](CCCCNC(=O)c2ccc3c(c2)C(=O)OC32c3ccc(O)cc3Oc3cc(O)ccc32)C(N)=O)NC(=O)[C@H](Cc2ccc(O)cc2)NC(=O)CNC(=O)[C@H](Cc2ccccc2)NC(=O)[C@H](CCCNC(=N)N)NC(=O)[C@H](CC(=O)O)NC1=O [SEQ ID NO: 370] | – |
| NB | 11.3 fold over background | 1.30 fold over background | CC(=O)NCC(=O)N[C@@H](CC(=O)O)C(=O)N[C@@H](Cc1ccc(O)cc1)C(=O)N[C@@H](CO)C(=O)N[C@@H](CCC(=O)O)C(=O)N[C@H]1CSSC[C@@H](C(=O)N[C@@H](Cc2ccc(O)cc2)C(=O)N[C@@H](CC(=O)O)C(=O)N[C@@H](CCCNC(=N)N)C(=O)N[C@@H](CC(=O)O)C(=O)N2CCC[C@H]2C(=O)NCC(=O)NCC(=O)NCC(=O)N[C@@H](CCCCNC(=O)c2ccc3c(c2)C(=O)OC32c3ccc(O)cc3Oc3cc(O)ccc32)C(N)=O)NC(=O)[C@H](CCCCN)NC(=O)[C@H](C(C)C)NC(=O)[C@H](CCC(=O)O)NC(=O)[C@H](Cc2ccccc2)NC(=O)[C@H](CO)NC(=O)[C@H](CC(=O)O)NC(=O)[C@@H]2CCCN2C(=O)[C@H](CCC(=O)O)NC(=O)[C@H](Cc2ccccc2)NC(=O)[C@H](Cc2ccccc2)NC1=O [SEQ ID NO: 399] | – |
| – | 26.3 fold over background | 1.33 fold over background | GSWRFCGGEYSFQVCQDVAP (Synthetically generated cMet-binding peptide sequence) [SEQ ID NO: 365] | growth inhibitory properties |
